From ChEMBL document CHEMBL3526006, “Metabolite profiling of bendamustine in urine of cancer patients after administration of [14C]bendamustine” (Drug Metab Dispos, 2012)

How the values were obtained:
Type in all cases: ADME, organism-based
[1] = Drug excretion in human urine assessed as retention time treated with [14C]bendamustine at 120 mg/m'2, iv after 2 hrs by 60 mins LC-LSC-MSn method
[2] = Drug excretion in human urine treated with [14C]bendamustine at 120 mg/m'2, iv after 2 hrs by 60-min LC-LSC-MSn method; details: in vivo
[3] = Drug excretion in human urine assessed as retention time treated with [14C]bendamustine at 120 mg/m'2, iv after 2 hrs by 180 mins LC-LSC-MSn method
[4] = Drug level in human urine treated with [14C]bendamustine at 120 mg/m'2, iv up to 168 hrs by 60-min LC-LSC-MSn method; details: in vivo
[5] = Drug excretion in human urine assessed as 4-(6-(bis(2-hydroxyethyl)amino)-1-methyl-1H-benzo[d]imidazol-2-yl)butanoic acid formation at 120 mg/m'2, iv up to 168 hrs by 60-min LC-LSC-MSn method; details: in vivo
[6] = Drug excretion in human urine assessed as 4-(6-((2-(2-amino-2-carboxyethylthio)ethyl)(2-hydroxyethyl)amino)-1-methyl-1H-benzo[d]imidazol-2-yl)-4-hydroxybutanoic acid formation at 120 mg/m'2, iv up to 168 hrs by 60-min LC-LSC-MSn method; details: in vivo
[7] = Drug excretion in human urine assessed as 4-(6-(bis(2-hydroxyethyl)amino)-1-methyl-1H-benzo[d]imidazol-2-yl)-4-hydroxybutanoic acid formation at 120 mg/m'2, iv up to 168 hrs by 60-min LC-LSC-MSn method; details: in vivo
[8] = Drug recovery in human urine at 120 mg/m'2, iv administered as single dose measured up to 3 weeks; details: read-out: Drug recovery
[9] = Drug excretion in human urine assessed as 4-(6-((2-(2-amino-2-carboxyethylthio)ethyl)(2-hydroxyethyl)amino)-1-methyl-1H-benzo[d]imidazol-2-yl)butanoic acid formation at 120 mg/m'2, iv up to 168 hrs by 60-min LC-LSC-MSn method; details: in vivo
[10] = Total drug recovery in human at 120 mg/m'2, iv administered as single dose measured up to 3 weeks; details: in vivo, read-out: Drug recovery
[11] = Drug excretion in human urine assessed as retention time at 120 mg/m'2, iv after 2 hrs by 180-min LC-LSC-MSn method

| SMILES | Retention_time [1] [min] | Drug excretion [2] [%] | Retention_time [3] [min] | other results |
| --- | --- | --- | --- | --- |
| Cn1c(CCCC(=O)O)nc2ccc(N(CCCl)CCOP(=O)(O)O)cc21 | 26.1 | > 1 | 70.7 |  |
| Cn1c(CCCC(=O)O)nc2ccc(N(CCO)CCS)cc21 | 24.2 | > 1 | 64.4 |  |
| Cn1c(CCCC(=O)O)nc2ccc(NCCCl)cc21 | 28.6 | > 1 | 72.5 |  |
| Cn1c(CCCC(=O)O)nc2ccc(NCC=O)cc21 | 16.9 | > 1 | 29.4 |  |
| Cn1c(CCCC(=O)O)nc2ccc(N(CCO)CCO)cc21 | 17.6 | > 1 | 33.7 | Drug excretion [4]: metabolite_detected |
| CC(=O)NC(CSCCN(CCCl)c1ccc2nc(CCCC(=O)O)n(C)c2c1)C(=O)O (centres undefined) | 32.2 | > 1 | 97.6 |  |
| Cn1c(CCCC(=O)O)nc2ccc(N(CCS)CCCl)cc21 | 35.1 | > 1 | 99.4 |  |
| Cn1c(C(O)CCC(=O)O)nc2ccc(N(CCCl)CCCl)cc21 (centres undefined) | 35.1 | > 1 | 104.5 |  |
| Cn1c(C(O)CCC(=O)O)nc2ccc(N(CCO)CCCl)cc21 (centres undefined) | 27.1 | > 1 | 71.3 |  |
| O=C(O)CCC(O)c1nc2ccc(N(CCCl)CCCl)cc2[nH]1 (centres undefined) | 35.3 | > 1 | 105.1 |  |
| Cl.Cn1c(CCCC(=O)O)nc2ccc(N(CCCl)CCCl)cc21 |  |  |  | Drug excretion [5]: metabolite_detected; Drug excretion [6]: metabolite_detected; Drug excretion [7]: metabolite_detected; dose excreted at 504 h [8]: 3%; Drug excretion [9]: metabolite_detected; dose excreted at 504 h [10]: 76%; Retention_time [11]: 36.3 min |
| CN1CC(=O)N=C1NCCN(CCO)c1ccc2nc(CCCC(=O)O)n(C)c2c1 | 13.9 | > 1 | 24.2 |  |
| Cn1c(CCCC(=O)O)nc2ccc(N(CCO)CCSCC(N)C(=O)O)cc21 (centres undefined) | 15.8 | > 1 | 29 | Drug excretion [4]: metabolite_detected |
| Cn1c(C(O)CCC(=O)O)nc2ccc(N(CCO)CCOP(=O)(O)O)cc21 (centres undefined) | 7.9 | > 1 | 14.7 |  |
| CN1CC(=O)N=C1NCCN(CCCl)c1ccc2nc(CCCC(=O)O)n(C)c2c1 | 23.1 | > 1 | 54.6 |  |
| Cn1c(C(O)CCC(=O)O)nc2ccc(NCCCl)cc21 (centres undefined) | 25.4 | > 1 | 57.3 |  |
| Cn1c(CCCC(=O)O)nc2ccc(N(CCO)CCOP(=O)(O)O)cc21 | 12.1 | > 1 | 22 |  |
| Cn1c(C(O)CCC(=O)O)nc2ccc(N(CCO)CCO)cc21 (centres undefined) | 13.3 | > 1 | 23.8 | Drug excretion [4]: metabolite_detected |
| Cn1c(CCCC(=O)O)nc2ccc(N(CCCl)CCSCC(N)C(=O)O)cc21 (centres undefined) | 26.5 | > 1 | 73.7 |  |
| Cn1c(CCCC(=O)O)nc2ccc(N(CCO)CCCl)cc21 | 29.2 | > 1 | 82.7 |  |
| O=C(O)CCCc1nc2ccc(N(CCO)CCO)cc2[nH]1 | 10.9 | > 1 | 18.7 |  |
| Cn1c(C(O)CCC(=O)O)nc2ccc(N(CCO)CCSCC(N)C(=O)O)cc21 (centres undefined) | 11 | > 1 | 19.7 | Drug excretion [4]: metabolite_detected |
